According to patent US8835472B2, “Compounds, pharmaceutical compositions and uses thereof” (Boehringer Ingelheim International GmbH, priority 2010, dated 2014):

Target: human ACC2 (Homo sapiens (Human), UniProt O00763)
Test: ACC2 assay, spectrophotometric 384 well assay (NADH-linked, coupled lactate dehydrogenase/pyruvate kinase reaction)
Type: biochemical
Details: hACC2 construct lacking the 128 N-terminal amino acids; 25° C., 340 nm over 15 minutes
Procedure, shortened: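 N-terminally truncated human ACC2 (lacking 128 residues) expressed in insect cells; coupled PK/LDH read-out of ADP as NADH loss at 340 nm, 15 min, 25 °C. Tris pH 7.5 with citrate and KHCO3; 200 μM acetyl-CoA, 500 μM ATP, 1% DMSO.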

Sequence of human ACC2 (O00763 129-2458): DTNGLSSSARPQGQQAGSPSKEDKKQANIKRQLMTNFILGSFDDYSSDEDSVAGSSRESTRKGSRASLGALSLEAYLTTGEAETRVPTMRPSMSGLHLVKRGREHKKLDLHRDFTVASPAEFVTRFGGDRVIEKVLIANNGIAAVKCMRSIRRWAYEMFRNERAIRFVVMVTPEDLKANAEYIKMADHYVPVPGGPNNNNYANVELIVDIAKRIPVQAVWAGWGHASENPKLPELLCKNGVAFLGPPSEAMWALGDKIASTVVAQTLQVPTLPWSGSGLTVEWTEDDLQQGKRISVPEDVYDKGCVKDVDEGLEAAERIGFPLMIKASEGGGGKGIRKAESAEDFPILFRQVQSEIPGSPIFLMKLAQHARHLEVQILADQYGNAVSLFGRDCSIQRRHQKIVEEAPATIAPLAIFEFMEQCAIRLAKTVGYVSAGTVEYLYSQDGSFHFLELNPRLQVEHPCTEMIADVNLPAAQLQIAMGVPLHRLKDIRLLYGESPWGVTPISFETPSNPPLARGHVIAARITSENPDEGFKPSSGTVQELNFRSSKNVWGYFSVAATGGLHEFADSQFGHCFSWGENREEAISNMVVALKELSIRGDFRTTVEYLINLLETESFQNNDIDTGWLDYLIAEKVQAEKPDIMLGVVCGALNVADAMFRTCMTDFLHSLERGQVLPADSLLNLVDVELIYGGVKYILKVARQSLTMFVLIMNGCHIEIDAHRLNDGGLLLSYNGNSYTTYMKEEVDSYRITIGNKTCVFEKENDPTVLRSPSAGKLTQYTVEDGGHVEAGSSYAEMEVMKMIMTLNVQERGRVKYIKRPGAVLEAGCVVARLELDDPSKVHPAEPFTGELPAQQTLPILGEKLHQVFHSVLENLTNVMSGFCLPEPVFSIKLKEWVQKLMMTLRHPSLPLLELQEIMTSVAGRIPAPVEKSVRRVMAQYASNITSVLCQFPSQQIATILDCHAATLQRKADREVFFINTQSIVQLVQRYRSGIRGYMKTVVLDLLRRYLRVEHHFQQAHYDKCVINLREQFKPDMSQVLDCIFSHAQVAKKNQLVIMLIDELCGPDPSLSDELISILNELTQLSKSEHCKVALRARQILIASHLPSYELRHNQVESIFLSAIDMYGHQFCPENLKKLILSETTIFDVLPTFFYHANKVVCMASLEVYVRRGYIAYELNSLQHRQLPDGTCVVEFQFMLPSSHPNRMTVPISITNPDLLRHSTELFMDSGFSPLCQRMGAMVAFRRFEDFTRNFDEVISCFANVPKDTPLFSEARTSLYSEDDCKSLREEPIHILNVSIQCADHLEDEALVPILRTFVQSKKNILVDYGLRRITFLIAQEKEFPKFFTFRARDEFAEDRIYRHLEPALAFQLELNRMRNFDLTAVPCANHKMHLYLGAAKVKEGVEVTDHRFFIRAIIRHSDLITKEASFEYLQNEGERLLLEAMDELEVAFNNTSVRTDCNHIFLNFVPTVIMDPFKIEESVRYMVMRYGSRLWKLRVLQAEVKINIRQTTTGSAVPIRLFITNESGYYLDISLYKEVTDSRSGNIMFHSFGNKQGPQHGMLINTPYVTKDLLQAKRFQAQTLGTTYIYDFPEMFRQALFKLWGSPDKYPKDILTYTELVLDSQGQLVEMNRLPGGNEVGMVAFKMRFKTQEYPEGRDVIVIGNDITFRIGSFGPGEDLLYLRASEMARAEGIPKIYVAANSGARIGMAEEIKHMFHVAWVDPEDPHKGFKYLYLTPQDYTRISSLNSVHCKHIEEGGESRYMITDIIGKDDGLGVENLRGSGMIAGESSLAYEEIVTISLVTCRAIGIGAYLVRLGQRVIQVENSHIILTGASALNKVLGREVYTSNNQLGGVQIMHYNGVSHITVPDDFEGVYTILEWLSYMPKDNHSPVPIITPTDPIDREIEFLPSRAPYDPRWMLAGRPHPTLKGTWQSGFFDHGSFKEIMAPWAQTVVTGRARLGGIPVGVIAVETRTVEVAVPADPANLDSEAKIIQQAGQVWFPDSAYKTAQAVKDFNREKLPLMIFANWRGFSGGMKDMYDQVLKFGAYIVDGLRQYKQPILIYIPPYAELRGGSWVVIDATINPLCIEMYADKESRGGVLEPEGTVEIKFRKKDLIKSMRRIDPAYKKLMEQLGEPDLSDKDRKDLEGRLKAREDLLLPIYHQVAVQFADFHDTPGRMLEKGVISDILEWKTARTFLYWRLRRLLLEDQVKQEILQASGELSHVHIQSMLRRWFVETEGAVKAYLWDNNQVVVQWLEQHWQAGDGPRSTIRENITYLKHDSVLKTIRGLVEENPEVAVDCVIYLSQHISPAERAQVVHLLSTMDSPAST

Structure (SMILES)	IC50
CC(=O)NC(C)Cc1ccc(C#Cc2ccc(OCC(F)F)cc2)cc1 (centres unmarked) [Example 9.22]	240 nM
CC(=O)NC(C)Cc1ccc(C#Cc2cnc(OC(C)CF)nc2)cc1 (centres unmarked) [Example 12.41]	520 nM
CCOc1ccc(C#Cc2ccc(CC(C)NC(=O)c3ccncc3)cc2)cc1 (centres unmarked) [Example 4.22]	930 nM
CCOc1ccc(C#Cc2ccc(CC(C)NC(=O)CS(C)(=O)=O)cc2)cc1 (centres unmarked) [Example 4.15]	780 nM
CC(=O)NC(C)Cc1ccc(C#Cc2cnc(NCc3ccc(C)cc3)nc2)cc1 (centres unmarked) [Example 13.79]	110 nM
CC(=O)NC(C)Cc1ccc(C#Cc2ccc(OCC(C)C)cn2)cc1 (centres unmarked) [Example 23.12]	650 nM
CC(=O)NC(C)Cc1ccc(C#Cc2ccc(OC(C)C)nn2)cc1 (centres unmarked) [Example 2.86]	930 nM
CCC(C)Oc1ccc(C#Cc2ccc(CC(C)NC(=O)C3CC3)cc2)cc1 (centres unmarked) [Example 14.46]	210 nM
CC(=O)NC(C)c1ccc(C#Cc2ccc(OC3CCC3)cc2)cc1 (centres unmarked) [Example 2.53]	120 nM
CCOc1ccc(C#Cc2ccc(C(C)NC(=O)C3(C)CC3)cc2)cc1 (centres unmarked) [Example 4.44]	1500 nM
CCOc1cc(C#Cc2ccc(C(C)NC(C)=O)cc2)ccn1 (centres unmarked) [Example 2.102]	580 nM
COc1ccc(-c2cnc(C#Cc3ccc(CC(C)NC(C)=O)cc3)cn2)cc1 (centres unmarked) [Example 1.13]	1100 nM
COc1ccc(C#Cc2ccc(CC(C)NC(C)=O)cc2)cc1OC (centres unmarked) [22.1]	1600 nM
CCOc1ccc(C#Cc2ccc(CC(C)NC(=O)C(C)C)cc2)cc1 (centres unmarked) [Example 4.2]	190 nM
CC(=O)NC(C)Cc1ccc(C#Cc2ccc(C(=O)N3CCOCC3)cc2)cc1 (centres unmarked) [Example 1.10]	5500 nM
CC(=O)NC(C)Cc1ccc(C#Cc2cnc(N3CCC4(CCC4)C3)nc2)cc1 (centres unmarked) [Example 13.71]	210 nM
CC(=O)NC(C)Cc1ccc(C#Cc2ccc(N3CCCCC3=O)cc2)cc1 (centres unmarked) [Example 2.6]	1400 nM
CC(=O)NC(C)Cc1ccc(C#Cc2ccc(OCC(C)C)cc2)cc1 (centres unmarked) [Example 2.17]	110 nM
C=CC(=O)NC(C)c1ccc(C#Cc2ccc(OCC)cc2)cc1 (centres unmarked) [Example 4.39]	710 nM
CCOc1ccc(C#Cc2ccc(C(C)NC(=O)C(C)O)cc2)cc1 (centres unmarked) [Example 4.40]	3700 nM
CC(=O)NC(C)Cc1ccc(C#Cc2ccc(C(=O)N3CCC(C)(C)CC3)cc2)cc1 (centres unmarked) [Example 8.16]	1900 nM
COC(=O)c1ccc(C#Cc2ccc(CC(C)NC(C)=O)cc2)o1 (centres unmarked) [Example 3.17]	880 nM

Structure (SMILES)	IC50
CC(=O)NC(C)CCc1ccc(C#Cc2cnc(OC3CCC3)nc2)cc1 (centres unmarked) [Example 14.54]	240 nM
CC(=O)NC(C)Cc1ccc(C#Cc2cccc(C(=O)N(C)CC(=O)OC(C)(C)C)c2)cc1 (centres unmarked) [Example 8.47]	12100 nM
CC(=O)NC(C)Cc1ccc(C#Cc2cnc(OC(CF)CF)nc2)cc1 (centres unmarked) [Example 12.44]	1000 nM
CC(Cc1ccc(C#Cc2ccc(Oc3cncnc3)nc2)cc1)NC(=O)C1CC1 (centres unmarked) [Example 14.27]	3700 nM
COc1cc(C#Cc2ccc(CC(C)NC(C)=O)cc2)ccn1 (centres unmarked) [Example 2.94]	260 nM
CC(=O)NC(C)Cc1ccc(C#Cc2ccc(C(F)(F)F)cc2Cl)cc1 (centres unmarked) [Example 2.3]	1400 nM
COc1ncc(C#Cc2ccc(CC(C)NC(=O)C3CC3)cc2)c(OC)n1 (centres unmarked) [Example 2.58]	3700 nM
CCCOc1ccc(C#Cc2ccc(CC(C)NC(=O)C3CC3)cc2)c(OC)c1 (centres unmarked) [Example 2.68]	250 nM
CC(=O)NC(C)Cc1ccc(C#Cc2ccnc(N(C)C3CCCC3)n2)cc1 (centres unmarked) [30.1]	330 nM
CCNc1nccc(C#Cc2ccc(CC(C)NC(C)=O)cc2)n1 (centres unmarked) [Example 11.14]	13800 nM
COCCn1ccc(C#Cc2ccc(CC(C)NC(C)=O)cc2)cc1=O (centres unmarked) [Example 2.83]	17700 nM
CCOc1ccc(C#Cc2ccc(CC(C)NC(=O)c3cnc[nH]3)cc2)cc1 (centres unmarked) [Example 4.66]	4700 nM
CC(=O)NC(C)Cc1ccc(C#Cc2cnc(OCc3cncs3)nc2)cc1 (centres unmarked) [Example 12.36]	1500 nM
CCC(CC)Oc1ccc(C#Cc2ccc(CC(C)NC(=O)C3CC3)cc2)cc1 (centres unmarked) [Example 14.33]	1600 nM
CCC(C)N(C)c1ncc(C#Cc2ccc(CC(C)NC(C)=O)cc2)cn1 (centres unmarked) [Example 13.21]	210 nM
CCOc1ccc(C#Cc2ccc(C(C)NC(=O)c3ccccn3)cc2)cc1 (centres unmarked) [Example 4.47]	2700 nM
CC(=O)NC(C)Cc1ccc(C#Cc2cccc3ncccc23)cc1 (centres unmarked) [Example 2.4]	3300 nM
CC(CNC(=O)C1CC1)c1ccc(C#Cc2cnc(OC3CCC3)nc2)cc1 (centres unmarked) [Example 32.4]	810 nM
CCOc1ccc(C#Cc2ccc(C(C)NC(=O)CO)cc2)cc1 (centres unmarked) [Example 4.48]	3900 nM
C=C1CCN(c2ncc(C#Cc3ccc(CC(C)NC(C)=O)cc3)cn2)CC1 (centres unmarked) [Example 13.85]	80 nM
CC(=O)NCC(C)(C)c1ccc(C#Cc2cnc(NC3CCC3)nc2)cc1 [Example 2.33]	270 nM
CC(=O)NC(C)Cc1ccc(C#Cc2cnc(N3Cc4ccccc4C3)nc2)cc1 (centres unmarked) [Example 13.64]	800 nM

Structure (SMILES)	IC50
CCCOc1ccc(C#Cc2ccc(C(C)NC(C)=O)cc2)cn1 (centres unmarked) [Example 2.54]	1200 nM
CCOc1ccc(C#Cc2ccc(CC(C)NC(=O)CC)cc2)cc1 (centres unmarked) [Example 4.7]	120 nM
CC(=O)NC(C)Cc1ccc(C#Cc2cccc3ccccc23)cc1 (centres unmarked) [Example 1.4]	2000 nM
CC(=O)NC(C)Cc1ccc(C#Cc2ccn(CC(C)C)c(=O)c2)cc1 (centres unmarked) [Example 2.82]	1600 nM
C[C@H](NC(=O)C1CC1)c1ccc(C#Cc2cnc(Oc3ccccc3)nc2)cc1 [Example 12.67]	3900 nM
CC(=O)NC(C)Cc1ccc(C#Cc2cccc(C(C)=O)c2)cc1 (centres unmarked) [Example 1.23]	1000 nM
CC(Cc1ccc(C#Cc2cnc(N3CCCCC3)nc2)cc1)NC(=O)C1CC1 (centres unmarked) [Example 13.45]	910 nM
CC(=O)NC(C)Cc1ccc(C#Cc2cccc(C(=O)NC3CCCC3)c2)cc1 (centres unmarked) [Example 8.26]	1500 nM
CC(=O)NC(C)Cc1ccc(C#Cc2ccnc(N3CCC(C(F)(F)F)CC3)n2)cc1 (centres unmarked) [Example 11.18]	510 nM
CCOc1ccc(C#Cc2ccc([C@H](C)NC(C)=O)cc2)cc1 [Example 14.19]	190 nM
CCOc1ccc(C#Cc2ccc(CC(C)NC(=O)c3ocnc3C)cc2)cc1 (centres unmarked) [Example 4.71]	430 nM
CCCOc1ncc(C#Cc2ccc(CC(C)NC(=O)C3CC3)cc2)cn1 (centres unmarked) [Example 12.23]	1100 nM
COc1ccc(C#Cc2ccc(CC(C)NC(C)=O)cc2)c(Cl)c1 (centres unmarked) [Example 3.15]	350 nM
CC(=O)NC(C)Cc1ccc(C#Cc2cnc(OCC3CC3(F)F)nc2)cc1 (centres unmarked) [Example 12.45]	180 nM
CC(=O)NC(C)Cc1ccc(C#Cc2ccnc(N(C)C(C)C)n2)cc1 (centres unmarked) [Example 11.8]	750 nM
CCOc1ccc(C#Cc2ccc(CC(C)N(C)C(=O)CC)cc2)cc1 (centres unmarked) [Example 18.2]	4400 nM
CC(=O)NC(C)Cc1ccc(C#Cc2cnc(-c3ccc(Cl)cc3)cn2)cc1 (centres unmarked) [Example 1.14]	200 nM
CCCNc1ncc(C#Cc2ccc(CC(C)NC(C)=O)cc2)cn1 (centres unmarked) [Example 13.2]	210 nM
CCOc1nccc(C#Cc2ccc(CC(C)NC(C)=O)cc2)n1 (centres unmarked) [Example 12.1, N-(1-(4-((2-ethoxypyrimidin-4-yl)ethynyl)phenyl)propan-2-yl)acetamide]	8500 nM
CC(=O)NC(C)Cc1ccc(C#Cc2ccnc(N3CCCC(F)C3)n2)cc1 (centres unmarked) [Example 11.16]	680 nM
CCCOc1ccc(C#Cc2ccc(CCC(C)NC(C)=O)cc2)cc1 (centres unmarked) [Example 14.11]	130 nM
CC(=O)N[C@@H](C)c1ccc(C#Cc2cnc(OCCC(F)(F)F)nc2)cc1 [Example 12.64]	550 nM

Structure (SMILES)	IC50
CC(=O)NC(C)c1ccc(C#Cc2cnn(Cc3ccccc3)c2)cc1 (centres unmarked) [Example 2.105]	930 nM
CCOc1cc(C#Cc2ccc(C[C@H](C)NC(C)=O)cc2)ccn1 (stereo in doubt) [Example 23.1, N-{2-[4-(2-Ethoxy-pyridin-4-ylethynyl)-phenyl]-1-methyl-ethyl}-acetamide]	230 nM
CCOc1ccc(C#Cc2ccc(C(C)NC(C)=O)cc2)cn1 (centres unmarked) [Example 14.2]	5900 nM
CCOc1ccc(C#Cc2ccc(C[C@H](C)NC(C)=O)cc2)cc1 [Example 24.2]	80 nM
CCOc1cccc(C#Cc2ccc(CC(C)NC(=O)C3CC3)cc2)c1 (centres unmarked) [Example 14.52]	3800 nM
CC(=O)N[C@@H](C)Cc1ccc(C#Cc2ccc(OCC(C)C)cc2)cc1 [Example 23.3]	400 nM
CC(Cc1ccc(C#Cc2cnc(OC3CCC3)nc2)cc1)NC(=O)C1CC1 (centres unmarked) [Example 12.22]	640 nM
CC(=O)NC(C)Cc1ccc(C#Cc2cnc(NCCF)nc2)cc1 (centres unmarked) [Example 13.65]	1600 nM
CC(=O)NC(C)Cc1ccc(C#Cc2cnc(OCc3cccnc3)nc2)cc1 (centres unmarked) [Example 12.56]	4900 nM
CCOc1ccc(C#Cc2ccc(CC(CC)NC(C)=O)cc2)cc1 (centres unmarked) [Example 27.3]	150 nM
CCN(C)c1nccc(C#Cc2ccc(CC(C)NC(C)=O)cc2)n1 (centres unmarked) [Example 11.4]	530 nM
CCCS(=O)(=O)NC(C)Cc1ccc(C#Cc2ccc(OCC)cc2)cc1 (centres unmarked) [Example 5.3]	1200 nM
CCOc1ccc(C#Cc2ccc(CC(C)NC(=O)C3(C)CC3)cc2)cc1 (centres unmarked) [Example 4.21]	140 nM
COCCOc1ncc(C#Cc2ccc(CC(C)NC(C)=O)cc2)cn1 (centres unmarked) [Example 12.9]	2100 nM
CCOc1ccc(C#Cc2ccc(C(C)NC(=O)c3cncs3)cc2)cc1 (centres unmarked) [Example 4.53]	370 nM
CCOc1cc(C#Cc2ccc(CC(C)NC(C)=O)cc2)ccn1 (centres unmarked) [Example 2.28]	270 nM
CC(=O)NC(C)Cc1ccc(C#Cc2ccnc(NC(C)C)n2)cc1 (centres unmarked) [Example 11.7]	12700 nM
CC(=O)NC(C)Cc1ccc(C#Cc2ccc(C(=O)N3Cc4ccccc4C3)cc2)cc1 (centres unmarked) [Example 8.12]	1500 nM
CC(=O)NC(C)Cc1ccc(C#Cc2cccc(C(=O)N3CCOCC3)c2)cc1 (centres unmarked) [Example 1.32]	16900 nM
CC(=O)NC(C)Cc1ccc(C#Cc2ccc(OCCN3CCOCC3)cc2)cc1 (centres unmarked) [Example 9.6]	9400 nM
